Source: ChEMBL document CHEMBL3885881, “DrugMatrix”

Species on record: Rattus norvegicus
Assay: DrugMatrix - Regimen: Daily Repeat
Assay type: toxicity, organism-based, Sprague-Dawley
Set-up: regimen Daily Repeat, gender Male, age 6-8 weeks
Settings: in vivo, po, route oral GAVAGE, vehicle 100 % WATER; for ALANINE AMINOTRANSFERASE / ALBUMIN / ALKALINE PHOSPHATASE / ASPARTATE AMINOTRANSFERASE / BLOOD UREA NITROGEN / CARBON DIOXIDE / CHLORIDE / CHOLESTEROL / CREATINE PHOSPHOKINASE / CREATININE / GLUCOSE / LACTATE DEHYDROGENASE / LIPASE / PHOSPHORUS / POTASSIUM / SODIUM / TOTAL BILIRUBIN / TOTAL PROTEIN / URIC ACID: tissue Plasma
[1] = 235 mg/kg, 72 h, tissue Blood, dose level Low, time 3 day
[2] = 235 mg/kg, 72 h, dose level Low, time 3 day
[3] = 235 mg/kg, 120 h, tissue Blood, dose level Low, time 5 day
[4] = 235 mg/kg, 120 h, dose level Low, time 5 day
[5] = 850 mg/kg, 72 h, tissue Blood, dose level M1, time 3 day

`CCCC(CCC)C(=O)O` [VALPROIC ACID] was tested, and the “ABSOLUTE MONOCYTE” value [1] was 121.33 CELLS/uL, the “ABSOLUTE SEGMENTED NEUTROPHIL” value [1] was 678.33 CELLS/uL and the BASOPHIL [1] was 0%. The EOSINOPHIL [1] was 0.67%, the “ERYTHROCYTE COUNT” value [1] was 5.06 x10E6/uL and the HEMATOCRIT [1] was 32.73%. For the same molecule, the “LEUKOCYTE COUNT” value [1] was 4.63 x10E3/uL, the LYMPHOCYTE [1] was 81.33% and the “MEAN CORPUSCULAR HEMOGLOBIN” value [1] was 25.03 pg. The “MEAN CORPUSCULAR HEMOGLOBIN CONCENTRATION” value [1] was 38.63 G/DL, the “MEAN CORPUSCULAR VOLUME” value [1] was 64.7 fL and the MONOCYTE [1] was 2.67%. For the same molecule, the NEUTROPHIL [1] was 15.33%, the “NUCLEATED RED BLOOD CELLS” value [1] was 0 /100WBC and the “PLATELET COUNT” value [1] was 772 x10E3/uL. For the same molecule, the “ALANINE AMINOTRANSFERASE” value [2] was 57 u/L, the ALBUMIN [2] was 4.1 G/DL and the “ALKALINE PHOSPHATASE” value [2] was 212.67 u/L. For the same molecule, the “ASPARTATE AMINOTRANSFERASE” value [2] was 81 u/L, the “BLOOD UREA NITROGEN” value [2] was 11 mg/dL and the “CARBON DIOXIDE” value [2] was 37.33 mmol/L. The CHLORIDE [2] was 98.33 MEQ/L, the CHOLESTEROL [2] was 62 mg/dL and the “CREATINE PHOSPHOKINASE” value [2] was 233 u/L. For the same molecule, the CREATININE [2] was 0.3 mg/dL, the GLUCOSE [2] was 154 mg/dL and the “LACTATE DEHYDROGENASE” value [2] was 73 u/L. For the same molecule, the LIPASE [2] was 10 u/L, the PHOSPHORUS [2] was 9.7 mg/dL and the POTASSIUM [2] was 5.09 MEQ/L. The SODIUM [2] was 143.63 MEQ/L, the “TOTAL BILIRUBIN” value [2] was 0.13 mg/dL and the “TOTAL PROTEIN” value [2] was 5.57 G/DL. For the same molecule, the “URIC ACID” value [2] was 0.47 mg/dL, the “ABSOLUTE BASOPHIL” value [3] was 0 CELLS/uL and the “ABSOLUTE EOSINOPHIL” value [3] was 0 CELLS/uL. The “ABSOLUTE LYMPHOCYTE” value [3] was 6770.33 CELLS/uL, the “ABSOLUTE MONOCYTE” value [3] was 195 CELLS/uL and the “ABSOLUTE SEGMENTED NEUTROPHIL” value [3] was 868 CELLS/uL. The BASOPHIL [3] was 0%, the EOSINOPHIL [3] was 0% and the “ERYTHROCYTE COUNT” value [3] was 5.27 x10E6/uL. For the same molecule, the HEMATOCRIT [3] was 33.47%, the “LEUKOCYTE COUNT” value [3] was 7.83 x10E3/uL and the LYMPHOCYTE [3] was 89%. The “MEAN CORPUSCULAR HEMOGLOBIN” value [3] was 24.47 pg, the “MEAN CORPUSCULAR HEMOGLOBIN CONCENTRATION” value [3] was 38.57 G/DL and the “MEAN CORPUSCULAR VOLUME” value [3] was 63.43 fL. For the same molecule, the MONOCYTE [3] was 2.33%, the NEUTROPHIL [3] was 8.67% and the “NUCLEATED RED BLOOD CELLS” value [3] was 0 /100WBC. For the same molecule, the “PLATELET COUNT” value [3] was 955 x10E3/uL, the “ALANINE AMINOTRANSFERASE” value [4] was 52.33 u/L and the ALBUMIN [4] was 4.03 G/DL. The “ALKALINE PHOSPHATASE” value [4] was 290.67 u/L, the “ASPARTATE AMINOTRANSFERASE” value [4] was 77.33 u/L and the “BLOOD UREA NITROGEN” value [4] was 12 mg/dL. For the same molecule, the “CARBON DIOXIDE” value [4] was 28.67 mmol/L, the CHLORIDE [4] was 103.67 MEQ/L and the CHOLESTEROL [4] was 71.67 mg/dL. For the same molecule, the “CREATINE PHOSPHOKINASE” value [4] was 272 u/L, the CREATININE [4] was 0.22 mg/dL and the GLUCOSE [4] was 144.33 mg/dL. For the same molecule, the “LACTATE DEHYDROGENASE” value [4] was 50.67 u/L, the LIPASE [4] was 9.33 u/L and the PHOSPHORUS [4] was 10.47 mg/dL. For the same molecule, the POTASSIUM [4] was 5.47 MEQ/L, the SODIUM [4] was 144.07 MEQ/L and the “TOTAL BILIRUBIN” value [4] was 0.13 mg/dL. The “TOTAL PROTEIN” value [4] was 5.93 G/DL, the “URIC ACID” value [4] was 0.43 mg/dL and the “ABSOLUTE BASOPHIL” value [5] was 0 CELLS/uL. The “ABSOLUTE EOSINOPHIL” value [5] was 40.67 CELLS/uL.
